Columns and labels:
Experiment in all cases: viability inhibition at highest dose (% inhibition); higher = more growth inhibition
[1] = system: T-47D; conditions: 72 h
Description: (§1)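 Percent inhibition of viability (CellTiter-Glo, 72 h) at the highest tested concentration (D5), normalised to DMSO (0%) and 100 µM benzethonium chloride (100%). Resistant lines and the 'in 1µM tamoxifen' arms were tested in 1 µM 4-OH-tamoxifen.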

[2] = system: ZR-75-1 Tam1; conditions: 4-OH-tamoxifen in medium 1 µM; 72 h
Description: as §1

[3] = system: T-47D Tam2; conditions: 4-OH-tamoxifen in medium 1 µM; 72 h
Description: as §1

[4] = system: MCF-7 Tam1; conditions: 4-OH-tamoxifen in medium 1 µM; 72 h
Description: as §1

[5] = system: BT-474; conditions: 72 h
Description: as §1

[6] = system: T-47D Tam1; conditions: 4-OH-tamoxifen in medium 1 µM; 72 h
Description: as §1

[7] = system: MCF-7; conditions: 72 h
Description: as §1

[8] = system: ZR-75-1 Tam2; conditions: 4-OH-tamoxifen in medium 1 µM; 72 h
Description: as §1

[9] = system: ZR-75-1; conditions: 72 h
Description: as §1

[10] = system: BT-474 Tam1; conditions: 4-OH-tamoxifen in medium 1 µM; 72 h
Description: as §1

[11] = system: BT-474 Tam2; conditions: 4-OH-tamoxifen in medium 1 µM; 72 h
Description: as §1

Nc1nc2[nH]cc(CCc3ccc(C(=O)N[C@@H](CCC(=O)O)C(=O)O)cc3)c2c(=O)[nH]1 [Pemetrexed] (drug 10000 nM)
viability inhibition at highest dose ([1]; 4-OH-tamoxifen in medium 0 µM): -12.4 | viability inhibition at highest dose ([1]; 4-OH-tamoxifen in medium 1 µM): 8.3 | viability inhibition at highest dose [2]: 1.51 | viability inhibition at highest dose [3]: 9.3 | viability inhibition at highest dose [4]: -1.81 | viability inhibition at highest dose ([5]; 4-OH-tamoxifen in medium 0 µM): -2.99 | viability inhibition at highest dose ([5]; 4-OH-tamoxifen in medium 1 µM): -11.2 | viability inhibition at highest dose [6]: -2.82 | viability inhibition at highest dose ([7]; 4-OH-tamoxifen in medium 0 µM): -15.5 | viability inhibition at highest dose ([7]; 4-OH-tamoxifen in medium 1 µM): 14.3 | viability inhibition at highest dose [8]: -6.3 | viability inhibition at highest dose ([9]; 4-OH-tamoxifen in medium 0 µM): -12.7 | viability inhibition at highest dose ([9]; 4-OH-tamoxifen in medium 1 µM): -4.01 | viability inhibition at highest dose [10]: -2.78 | viability inhibition at highest dose [11]: 4.1

O=C(Nc1c[nH]nc1-c1nc2ccc(CN3CCOCC3)cc2[nH]1)NC1CC1 [AT9283] (drug 1000 nM)
viability inhibition at highest dose ([1]; 4-OH-tamoxifen in medium 0 µM): -42.6 | viability inhibition at highest dose ([1]; 4-OH-tamoxifen in medium 1 µM): -23.3 | viability inhibition at highest dose [2]: -22.4 | viability inhibition at highest dose [3]: 2.08 | viability inhibition at highest dose [4]: -5.75 | viability inhibition at highest dose ([5]; 4-OH-tamoxifen in medium 0 µM): -19.7 | viability inhibition at highest dose ([5]; 4-OH-tamoxifen in medium 1 µM): -13.2 | viability inhibition at highest dose [6]: -7.78 | viability inhibition at highest dose ([7]; 4-OH-tamoxifen in medium 0 µM): -25.8 | viability inhibition at highest dose ([7]; 4-OH-tamoxifen in medium 1 µM): -11 | viability inhibition at highest dose [8]: -19.2 | viability inhibition at highest dose ([9]; 4-OH-tamoxifen in medium 0 µM): -44.4 | viability inhibition at highest dose ([9]; 4-OH-tamoxifen in medium 1 µM): -22.6 | viability inhibition at highest dose [10]: 1.94 | viability inhibition at highest dose [11]: 11.4

C[C@]12CC[C@H](O)CC1=CC[C@@H]1[C@@H]2CC[C@]2(C)C(c3cccnc3)=CC[C@@H]12 [Abiraterone (CB-7598)] (drug 5000 nM)
viability inhibition at highest dose ([1]; 4-OH-tamoxifen in medium 0 µM): -18.4 | viability inhibition at highest dose ([1]; 4-OH-tamoxifen in medium 1 µM): -16.6 | viability inhibition at highest dose [2]: -0.517 | viability inhibition at highest dose [3]: -1.44 | viability inhibition at highest dose [4]: -8.38 | viability inhibition at highest dose ([5]; 4-OH-tamoxifen in medium 0 µM): -6.23 | viability inhibition at highest dose ([5]; 4-OH-tamoxifen in medium 1 µM): -14.7 | viability inhibition at highest dose [6]: -5.53 | viability inhibition at highest dose ([7]; 4-OH-tamoxifen in medium 0 µM): -13.6 | viability inhibition at highest dose ([7]; 4-OH-tamoxifen in medium 1 µM): -10.3 | viability inhibition at highest dose [8]: -3.39 | viability inhibition at highest dose ([9]; 4-OH-tamoxifen in medium 0 µM): -6.86 | viability inhibition at highest dose ([9]; 4-OH-tamoxifen in medium 1 µM): -7.24 | viability inhibition at highest dose [10]: 6.31 | viability inhibition at highest dose [11]: -1

COCC1(CO)C(=O)C2CCN1CC2 (stereo not given) [Prima-1 Met] (drug 10000 nM)
viability inhibition at highest dose ([1]; 4-OH-tamoxifen in medium 0 µM): -7.38 | viability inhibition at highest dose ([1]; 4-OH-tamoxifen in medium 1 µM): -11.1 | viability inhibition at highest dose [2]: -1.64 | viability inhibition at highest dose [3]: -9.64 | viability inhibition at highest dose [4]: -10.1 | viability inhibition at highest dose ([5]; 4-OH-tamoxifen in medium 0 µM): -9.27 | viability inhibition at highest dose ([5]; 4-OH-tamoxifen in medium 1 µM): -13.3 | viability inhibition at highest dose [6]: 1.75 | viability inhibition at highest dose ([7]; 4-OH-tamoxifen in medium 0 µM): 10.8 | viability inhibition at highest dose ([7]; 4-OH-tamoxifen in medium 1 µM): 3.83 | viability inhibition at highest dose [8]: 17.7 | viability inhibition at highest dose ([9]; 4-OH-tamoxifen in medium 0 µM): -1.59 | viability inhibition at highest dose ([9]; 4-OH-tamoxifen in medium 1 µM): -9.16 | viability inhibition at highest dose [10]: -5.47 | viability inhibition at highest dose [11]: 0.869

CC/C(=C(\c1ccc(O)cc1)c1ccc(OCCN(C)C)cc1)c1ccccc1 [4-hydroxytamoxifen] (drug 10000 nM)
viability inhibition at highest dose ([1]; 4-OH-tamoxifen in medium 0 µM): 20.4 | viability inhibition at highest dose ([1]; 4-OH-tamoxifen in medium 1 µM): 59 | viability inhibition at highest dose [2]: 17.8 | viability inhibition at highest dose [3]: 79.7 | viability inhibition at highest dose [4]: 46.3 | viability inhibition at highest dose ([5]; 4-OH-tamoxifen in medium 0 µM): 23.3 | viability inhibition at highest dose ([5]; 4-OH-tamoxifen in medium 1 µM): 97.2 | viability inhibition at highest dose [6]: 38.4 | viability inhibition at highest dose ([7]; 4-OH-tamoxifen in medium 0 µM): 52.3 | viability inhibition at highest dose ([7]; 4-OH-tamoxifen in medium 1 µM): 83.1 | viability inhibition at highest dose [8]: 21.5 | viability inhibition at highest dose ([9]; 4-OH-tamoxifen in medium 0 µM): 8.03 | viability inhibition at highest dose ([9]; 4-OH-tamoxifen in medium 1 µM): 33.1 | viability inhibition at highest dose [10]: 97.8 | viability inhibition at highest dose [11]: 96

CN(C)CCN1C(=O)c2cccc3cc(N)cc(c23)C1=O [Amonafide] (drug 10000 nM)
viability inhibition at highest dose ([1]; 4-OH-tamoxifen in medium 0 µM): 23.6 | viability inhibition at highest dose ([1]; 4-OH-tamoxifen in medium 1 µM): -12 | viability inhibition at highest dose [2]: 12.9 | viability inhibition at highest dose [3]: 11.3 | viability inhibition at highest dose [4]: 7.15 | viability inhibition at highest dose ([5]; 4-OH-tamoxifen in medium 0 µM): -11.5 | viability inhibition at highest dose ([5]; 4-OH-tamoxifen in medium 1 µM): -35.2 | viability inhibition at highest dose [6]: 5.27 | viability inhibition at highest dose ([7]; 4-OH-tamoxifen in medium 0 µM): 51.1 | viability inhibition at highest dose ([7]; 4-OH-tamoxifen in medium 1 µM): 20.4 | viability inhibition at highest dose [8]: 23.1 | viability inhibition at highest dose ([9]; 4-OH-tamoxifen in medium 0 µM): 35.4 | viability inhibition at highest dose ([9]; 4-OH-tamoxifen in medium 1 µM): 17.1 | viability inhibition at highest dose [10]: -18.4 | viability inhibition at highest dose [11]: -15.7

COc1cccc2cc(-c3nc([C@H]4CC[C@H](C(=O)O)CC4)n4ncnc(N)c34)[nH]c12 [OSI-027] (drug 10000 nM)
viability inhibition at highest dose ([1]; 4-OH-tamoxifen in medium 0 µM): 62.6 | viability inhibition at highest dose ([1]; 4-OH-tamoxifen in medium 1 µM): 42.7 | viability inhibition at highest dose [2]: 52.6 | viability inhibition at highest dose [3]: 38 | viability inhibition at highest dose [4]: 30.1 | viability inhibition at highest dose ([5]; 4-OH-tamoxifen in medium 0 µM): 35.5 | viability inhibition at highest dose ([5]; 4-OH-tamoxifen in medium 1 µM): 47.5 | viability inhibition at highest dose [6]: 55.6 | viability inhibition at highest dose ([7]; 4-OH-tamoxifen in medium 0 µM): 44.4 | viability inhibition at highest dose ([7]; 4-OH-tamoxifen in medium 1 µM): 43.9 | viability inhibition at highest dose [8]: 65.5 | viability inhibition at highest dose ([9]; 4-OH-tamoxifen in medium 0 µM): 60.5 | viability inhibition at highest dose ([9]; 4-OH-tamoxifen in medium 1 µM): 52.9 | viability inhibition at highest dose [10]: 38.1 | viability inhibition at highest dose [11]: 35.6

Cn1cnc2c(F)c(Nc3ccc(Br)cc3F)c(C(=O)NOCCO)cc21 [MEK-162 (ARRY-162)] (drug 1000 nM)
viability inhibition at highest dose ([1]; 4-OH-tamoxifen in medium 0 µM): -6.66 | viability inhibition at highest dose ([1]; 4-OH-tamoxifen in medium 1 µM): -10.7 | viability inhibition at highest dose [2]: -1.39 | viability inhibition at highest dose [3]: 14.1 | viability inhibition at highest dose [4]: 10.4 | viability inhibition at highest dose ([5]; 4-OH-tamoxifen in medium 0 µM): -13.3 | viability inhibition at highest dose ([5]; 4-OH-tamoxifen in medium 1 µM): 6.81 | viability inhibition at highest dose [6]: 17.2 | viability inhibition at highest dose ([7]; 4-OH-tamoxifen in medium 0 µM): 12.2 | viability inhibition at highest dose ([7]; 4-OH-tamoxifen in medium 1 µM): 20.8 | viability inhibition at highest dose [8]: 7.88 | viability inhibition at highest dose ([9]; 4-OH-tamoxifen in medium 0 µM): -6.09 | viability inhibition at highest dose ([9]; 4-OH-tamoxifen in medium 1 µM): -7.06 | viability inhibition at highest dose [10]: 2.68 | viability inhibition at highest dose [11]: -1.22

COc1ccc(-c2ccc3c(N4CCOC[C@@H]4C)nc(N4CCOC[C@@H]4C)nc3n2)cc1CO [AZD8055] (drug 10000 nM)
viability inhibition at highest dose ([1]; 4-OH-tamoxifen in medium 0 µM): 61 | viability inhibition at highest dose ([1]; 4-OH-tamoxifen in medium 1 µM): 55.9 | viability inhibition at highest dose [2]: 57.3 | viability inhibition at highest dose [3]: 58.3 | viability inhibition at highest dose [4]: 34.5 | viability inhibition at highest dose ([5]; 4-OH-tamoxifen in medium 0 µM): 43.2 | viability inhibition at highest dose ([5]; 4-OH-tamoxifen in medium 1 µM): 77.2 | viability inhibition at highest dose [6]: 54.4 | viability inhibition at highest dose ([7]; 4-OH-tamoxifen in medium 0 µM): 72.4 | viability inhibition at highest dose ([7]; 4-OH-tamoxifen in medium 1 µM): 56.5 | viability inhibition at highest dose [8]: 61 | viability inhibition at highest dose ([9]; 4-OH-tamoxifen in medium 0 µM): 60 | viability inhibition at highest dose ([9]; 4-OH-tamoxifen in medium 1 µM): 50.2 | viability inhibition at highest dose [10]: 80.1 | viability inhibition at highest dose [11]: 56.1

N#CCNC(=O)c1ccc(-c2ccnc(Nc3ccc(N4CCOCC4)cc3)n2)cc1 [Momelotinib (CYT-387)] (drug 10000 nM)
viability inhibition at highest dose ([1]; 4-OH-tamoxifen in medium 0 µM): 22.8 | viability inhibition at highest dose ([1]; 4-OH-tamoxifen in medium 1 µM): 17.9 | viability inhibition at highest dose [2]: 7.45 | viability inhibition at highest dose [3]: 40 | viability inhibition at highest dose [4]: 43.1 | viability inhibition at highest dose ([5]; 4-OH-tamoxifen in medium 0 µM): 3.98 | viability inhibition at highest dose ([5]; 4-OH-tamoxifen in medium 1 µM): -26.5 | viability inhibition at highest dose [6]: 39.2 | viability inhibition at highest dose ([7]; 4-OH-tamoxifen in medium 0 µM): 48.5 | viability inhibition at highest dose ([7]; 4-OH-tamoxifen in medium 1 µM): 69 | viability inhibition at highest dose [8]: 8.52 | viability inhibition at highest dose ([9]; 4-OH-tamoxifen in medium 0 µM): 6.2 | viability inhibition at highest dose ([9]; 4-OH-tamoxifen in medium 1 µM): 5.38 | viability inhibition at highest dose [10]: 38.6 | viability inhibition at highest dose [11]: 31.1

CCN(CC)CCCC(C)Nc1ccnc2cc(Cl)ccc12 (stereo not given) [Chloroquine] (drug 990000 nM)
viability inhibition at highest dose ([1]; 4-OH-tamoxifen in medium 0 µM): -0.514 | viability inhibition at highest dose ([1]; 4-OH-tamoxifen in medium 1 µM): -3.72 | viability inhibition at highest dose [2]: 0.712 | viability inhibition at highest dose [3]: -12.2 | viability inhibition at highest dose [4]: -1.25 | viability inhibition at highest dose ([5]; 4-OH-tamoxifen in medium 0 µM): -6.4 | viability inhibition at highest dose ([5]; 4-OH-tamoxifen in medium 1 µM): -13.3 | viability inhibition at highest dose [6]: 3.21 | viability inhibition at highest dose ([7]; 4-OH-tamoxifen in medium 0 µM): -2.81 | viability inhibition at highest dose ([7]; 4-OH-tamoxifen in medium 1 µM): 0.449 | viability inhibition at highest dose [8]: 6.98 | viability inhibition at highest dose ([9]; 4-OH-tamoxifen in medium 0 µM): -2.67 | viability inhibition at highest dose ([9]; 4-OH-tamoxifen in medium 1 µM): -3.36 | viability inhibition at highest dose [10]: 19 | viability inhibition at highest dose [11]: 7.83

— the supplement of paper PMC4932681
